Results published in patent publication US4816463A, “Substituted diimidazo [1,5-a: 4',5'-d]pyridines having antihypertensive activity” (Warner-Lambert Company, priority 1987, dated 1989).

Columns and labels:
[1] = molecular target: rat adrenal receptor preparations (angiotensin II binding); experiment: inhibition of 125I-angiotensin II binding to rat adrenal receptor preparations; details: read-out: IC50 (μM) for inhibition of 125I angiotensin II binding to rat adrenal receptor preparations
[2] = test system: 2 kidney, 1-clip Goldblatt hypertensive rat (RHR); experiment: antihypertensive evaluation (AHP3): blood pressure in conscious 2 kidney, 1-clip Goldblatt (renal) hypertensive rats (RHR); format: in vivo; details: 30 mg/kg ip in RHR, read-out: Max % decrease in blood pressure
Description: The continuous monitoring of pulsatile blood pressure (BP) from unrestrained conscious rats surgically equipped with polyethylene cannulas was accomplished by means of a computer assisted data capture scheme (CADCS). The basic elements of the methodology are the cannulation procedure and the CADCS.
Cannulas fabricated from polyethylene tubing were inserted into the aorta via an undersized puncture hole below the renal arteries. The puncture hole was made by a 23 G disposable needle with a section of the aorta clamped off above and below the puncture site. The cannulas, consisting of a PE100 (0.86 mm ID) body and a PE50 (0.58 mm ID) tip, were attached to a trocar, inserted through the psoas muscle, and passed subcutaneously along the midline of the back and externalized between the ears. The cannulas were anchored to the psoas muscle and between the scalulae (3-0 green braided suture). […] Each rat was then given penicillin 30,000 units subcutaneously (Penicillin G Procaine Sterile Suspension).
The rats were fitted with a harness-spring-swivel assembly designed to protect the cannula and to provide the rat relative freedom of movement. The harnesses were fabricated from nylon hook and loop tape cemented to a metal plate to which spring wires (18-8 stainless steel), were attached to brass swivels. […]

[3] = test system: spontaneously hypertensive rat (SHR); experiment: antihypertensive evaluation (AHP3): blood pressure in conscious spontaneously hypertensive rats (SHR); format: in vivo; details: 30 mg/kg PO in SHR, read-out: Max % decrease in blood pressure
Description: Thus, for example, compounds of formula I when administered intrapertoneally or orally to 2 kidney, 1-clip Goldblatt (renal) hypertensive rats (See S. Sen, et al., "Role of Renin-Anfgiotensin System in Chronic Renal Hypertensive Rats," Hypertension 1: 427-4343 (1979) and Clin. Soc. 57: 53-62, 1979, "Antihypertensive Effect of Prolonged Blockade of Angiotensin Formation in Benign and Malignant, one- and two-kidney Goldblatt Hypertensive Rats".) at doses in the range of 1-100 mg/kg cause 10-80 mmHg drops in blood pressure. […] Angiotensin binding inhibition activity and blood pressure lowering activity in renal hypertensive rats of the optimally substituted examples of formula I are listed in Table 1. Blood pressure lowering activity in spontaneously hypertensive rats of optimally substituted examples of formula II are listed in Table 2. […]
CADCS: The pulsatile blood pressure of each of 32 rats was monitored continuously by two signal conditioning units (Gould, Cleve., Ohio). The signals from these units were monitored and digital data for mean, systolic, and diastolic blood pressures as well as for heart rate were calculated every 5 min by two in-laboratory computers (Hewlett Packard, Cupertino, Ca.). […]

| Structure (SMILES) | IC50 [1] | change in vivo at 30 mg/kg [2] | change in vivo at 30 mg/kg [3] |
| --- | --- | --- | --- |
| O=C(O)C1Cc2c(ncn2Cc2ccccc2)CN1C(=O)C1c2ccccc2-c2ccccc21 (racemic) [Example 29, 1H-Imidazo[4,5-c]pyridine-6-carboxylic acid, 5-[(9H-fluoren-9-yl)carbonyl]-4,5,6,7-tetrahydro-1-(phenylmethyl)-, (±)-] | 8 µM | -22% |  |
| CSc1ccc(N2C(=O)C3Cc4[nH]cnc4CN3C2=O)cc1 (stereo not drawn) [Example 158, 8a,9-Dihydro-7-[4-(methylthio)phenyl]-1H-diimidazo[1,5-a:4',5'-d]pyridine-6,8(4H,7H)-dione] |  |  | -17% |
